# Laboratory results taken from US20250034136A1 (Nimbus Wadjet, Inc., priority 2023, published 2025).
# Like-named read-outs stand apart in the source and are kept apart here.
# Assays:
# [1] = tested on: p21 induction in HCT116 cells; assay: p21 induction in HCT116 cells; assay type: cell-based; details: HCT116 cells, 24 h compound incubation, read-out: P21_EC50
# Summary of the method: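 EC50 from non-linear curve fit of p21 immunofluorescence (800 nm), with GAPDH (700 nm) read alongside. DMSO and a reference WRN inhibitor served as low and high controls. Cells (2,000/well) got 11 compound concentrations in duplicate for 24 h at 37 °C.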
# [2] = biological target: WRN (BV08), human Werner helicase (Uniprot Q14191, amino acids 517-1235 with L1074F point mutation) (Homo sapiens (Human), UniProt Q14191, L1074F); assay: WRN (BV08) ADP-Glo assay; assay type: biochemical; details: class symbols A-E, read-out: ADP-Glo_hWRN_IC50
# Chain of WRN (BV08), human Werner helicase (Uniprot Q14191, amino acids 517-1235 with L1074F point mutation) (Q14191 other isoform, or with tags, fused parts or gaps L1074F (already in the parent)): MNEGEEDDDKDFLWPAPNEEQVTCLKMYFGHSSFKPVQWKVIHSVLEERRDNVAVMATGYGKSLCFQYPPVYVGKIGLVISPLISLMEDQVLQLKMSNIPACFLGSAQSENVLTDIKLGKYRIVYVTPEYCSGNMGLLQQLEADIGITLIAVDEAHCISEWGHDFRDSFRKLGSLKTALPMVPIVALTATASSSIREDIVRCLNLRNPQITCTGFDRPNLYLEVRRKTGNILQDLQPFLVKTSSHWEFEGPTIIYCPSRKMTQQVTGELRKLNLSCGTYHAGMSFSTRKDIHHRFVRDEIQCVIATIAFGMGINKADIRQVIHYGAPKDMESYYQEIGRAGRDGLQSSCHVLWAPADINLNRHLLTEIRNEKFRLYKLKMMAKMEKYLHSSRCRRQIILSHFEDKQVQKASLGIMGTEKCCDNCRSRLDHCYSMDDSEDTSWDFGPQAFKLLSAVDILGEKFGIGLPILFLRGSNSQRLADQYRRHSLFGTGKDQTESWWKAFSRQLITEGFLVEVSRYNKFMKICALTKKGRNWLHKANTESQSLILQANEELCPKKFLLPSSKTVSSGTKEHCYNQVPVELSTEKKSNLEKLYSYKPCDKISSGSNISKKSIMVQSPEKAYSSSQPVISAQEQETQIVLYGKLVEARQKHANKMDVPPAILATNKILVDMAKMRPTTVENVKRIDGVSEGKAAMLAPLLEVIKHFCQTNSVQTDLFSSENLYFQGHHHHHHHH
Structure (SMILES),"EC50 ([1]; Homo sapiens, HCT-116, 24 h) [nM]",IC50 [2] [nM],EC50 [1] [nM]
"CCc1c(N2CCN(C(=O)c3ncnc(C)c3O)[C@H]3CC[C@@H]32)c(=O)c2nc(NC)cnc2n1CC(=O)Nc1ccc(C(F)(F)F)cc1Cl [I-227, N-[2-chloro-4-(trifluoromethyl)phenyl]-2-{6-ethyl-7-[(1S,6S)-5-(5-hydroxy-6-methylpyrimidine-4-carbonyl)-2,5-diazabicyclo[4.2.0]octan-2-yl]-2-(methylamino)-8-oxo-5H,8H-pyrido[2,3-b]pyrazin-5-yl}acetamide]",,≤ 5,< 500
"CCc1c(N2CCN(C(=O)c3c(OC)ncc(C)c3O)C[C@@H]2C)c(=O)c2nc(N(C)C)cnc2n1CC(=O)Nc1ccc(C(F)(F)F)cc1Cl [I-228, N-[2-chloro-4-(trifluoromethyl)phenyl]-2-[2-(dimethylamino)-6-ethyl-7-[(2S)-4-(4-hydroxy-2-methoxy-5-methylpyridine-3-carbonyl)-2-methylpiperazin-1-yl]-8-oxo-5H,8H-pyrido[2,3-b]pyrazin-5-yl]acetamide]",< 500,5 to 50,
"CCc1c(C23CCN(C(=O)c4ncnc(C)c4O)CC2C3)c(=O)c2nc(N(C)C)cnc2n1CC(=O)Nc1ccc(C(F)(F)F)cc1Cl (stereo not drawn) [I-229, N-[2-chloro-4-(trifluoromethyl)phenyl]-2-[2-(dimethylamino)-6-ethyl-7-[3-(5-hydroxy-6-methylpyrimidine-4-carbonyl)-3-azabicyclo[4.1.0]heptan-6-yl]-8-oxo-5H,8H-pyrido[2,3-b]pyrazin-5-yl]acetamide]",500 to 2000,5 to 50,
"CCc1c(N2CCN(C(=O)c3ncnc(C)c3O)C[C@@H]2CO)c(=O)c2nc(N(C)C)cnc2n1CC(=O)Nc1ccc(C(F)(F)F)cc1Cl [I-244, N-[2-chloro-4-(trifluoromethyl)phenyl]-2-[2-(dimethylamino)-6-ethyl-7-[(2R)-4-(5-hydroxy-6-methylpyrimidine-4-carbonyl)-2-(hydroxymethyl)piperazin-1-yl]-8-oxo-5H,8H-pyrido[2,3-b]pyrazin-5-yl]acetamide]",> 5000,5 to 50,
"CCc1c(N2CCN(C(=O)c3ncnc(C)c3O)[C@H]3CC[C@@H]32)c(=O)c2nc(N3CC(C)(O)C3)cnc2n1CC(=O)Nc1ccc(C(F)(F)F)cc1Cl [I-246, N-[2-chloro-4-(trifluoromethyl)phenyl]-2-[6-ethyl-2-(3-hydroxy-3-methylazetidin-1-yl)-7-[(1S,6S)-5-(5-hydroxy-6-methylpyrimidine-4-carbonyl)-2,5-diazabicyclo[4.2.0]octan-2-yl]-8-oxo-5H,8H-pyrido[2,3-b]pyrazin-5-yl]acetamide]",500 to 2000,5 to 50,
"CCc1c(N2CCN(C(=O)c3ncnc(C)c3O)[C@H]3CC[C@@H]32)c(=O)c2nc(N3CCCC3=O)cnc2n1CC(=O)Nc1ccc(C(F)(F)F)cc1Cl [I-253, N-[2-chloro-4-(trifluoromethyl)phenyl]-2-{6-ethyl-7-[(1S,6S)-5-(5-hydroxy-6-methylpyrimidine-4-carbonyl)-2,5-diazabicyclo[4.2.0]octan-2-yl]-8-oxo-2-(2-oxopyrrolidin-1-yl)-5H,8H-pyrido[2,3-b]pyrazin-5-yl}acetamide]",< 500,5 to 50,
"CCc1c(N2CCN(C(=O)c3ncnc(C)c3O)CC2)c(=O)c2nc(C3(C#N)CC3)cnc2n1CC(=O)Nc1ccc(C(F)(F)F)cc1Cl [I-254, N-[2-chloro-4-(trifluoromethyl)phenyl]-2-[2-(1-cyanocyclopropyl)-6-ethyl-7-[4-(5-hydroxy-6-methylpyrimidine-4-carbonyl)piperazin-1-yl]-8-oxo-5H,8H-pyrido[2,3-b]pyrazin-5-yl]acetamide]",500 to 2000,5 to 50,

# More lines, now with the values ahead:
"EC50 ([1]; Homo sapiens, HCT-116, 24 h) [nM]",IC50 [2] [nM],EC50 [1] [nM],Structure (SMILES)
< 500,≤ 5,,"[2H]C([2H])([2H])Nc1cnc2c(n1)c(=O)c(N1CCN(C(=O)c3ncnc(C)c3O)[C@H]3CC[C@@H]31)c(CC)n2CC(=O)Nc1ccc(C(F)(F)F)cc1Cl [I-226, N-[2-chloro-4-(trifluoromethyl)phenyl]-2-{6-ethyl-7-[(1S,6S)-5-(5-hydroxy-6-methylpyrimidine-4-carbonyl)-2,5-diazabicyclo[4.2.0]octan-2-yl]-2-[(methyl-d3)amino]-8-oxo-5H,8H-pyrido[2,3-b]pyrazin-5-yl}acetamide]"
< 500,5 to 50,,"CCc1c(N2CCN(C(=O)c3ncnc(C)c3O)[C@H]3CC[C@@H]32)c(=O)c2nc(N(C)C)cnc2n1CC(=O)Nc1cc(F)c(C(F)(F)F)cc1C [I-236, 2-[2-(dimethylamino)-6-ethyl-7-[(1S,6S)-5-(5-hydroxy-6-methylpyrimidine-4-carbonyl)-2,5-diazabicyclo[4.2.0]octan-2-yl]-8-oxo-5H,8H-pyrido[2,3-b]pyrazin-5-yl]-N-[5-fluoro-2-methyl-4-(trifluoromethyl)phenyl]acetamide]"
< 500,5 to 50,,"CCc1c(N2CCN(C(=O)c3c(OC)ncc(C)c3O)CC2)c(=O)c2nc(C3CC3)cnc2n1CC(=O)Nc1ccc(C(F)(F)F)cc1Cl [I-239, N-[2-chloro-4-(trifluoromethyl)phenyl]-2-{2-cyclopropyl-6-ethyl-7-[4-(4-hydroxy-2-methoxy-5-methylpyridine-3-carbonyl)piperazin-1-yl]-8-oxo-5H,8H-pyrido[2,3-b]pyrazin-5-yl} acetamide]"
< 500,5 to 50,,"CCc1c(N2CCN(C(=O)c3ncnc(C)c3O)[C@H]3CC[C@@H]32)c(=O)c2nc(N(C)C)cnc2n1CC(=O)Nc1ccc(C(F)F)cc1Cl [I-240, N-[2-chloro-4-(difluoromethyl)phenyl]-2-[2-(dimethylamino)-6-ethyl-7-[(1S,6S)-5-(5-hydroxy-6-methylpyrimidine-4-carbonyl)-2,5-diazabicyclo[4.2.0]octan-2-yl]-8-oxo-5H,8H-pyrido[2,3-b]pyrazin-5-yl]acetamide]"
< 500,≤ 5,,"CCc1c(N2CCN(C(=O)c3ncnc(C)c3O)[C@H]3CC[C@@H]32)c(=O)c2nc(-c3ccnn3C)cnc2n1CC(=O)Nc1ccc(C(F)(F)F)cc1Cl [I-241, N-[2-chloro-4-(trifluoromethyl)phenyl]-2-{6-ethyl-7-[(1S,6S)-5-(5-hydroxy-6-methylpyrimidine-4-carbonyl)-2,5-diazabicyclo[4.2.0]octan-2-yl]-2-(1-methyl-1H-pyrazol-5-yl)-8-oxo-5H,8H-pyrido[2,3-b]pyrazin-5-yl}acetamide]"
< 500,5 to 50,,"CCc1c(N2CCN(C(=O)c3ncnc(C)c3O)[C@H]3CC[C@@H]32)c(=O)c2nc(N3CC(OC)C3)cnc2n1CC(=O)Nc1ccc(C(F)(F)F)cc1Cl [I-242, N-[2-chloro-4-(trifluoromethyl)phenyl]-2-{6-ethyl-7-[(1S,6S)-5-(5-hydroxy-6-methylpyrimidine-4-carbonyl)-2,5-diazabicyclo[4.2.0]octan-2-yl]-2-(3-methoxyazetidin-1-yl)-8-oxo-5H,8H-pyrido[2,3-b]pyrazin-5-yl}acetamide]"
< 500,5 to 50,,"CCc1c(N2CCN(C(=O)c3c(OC)ncc(C)c3O)[C@H]3CCC[C@@H]32)c(=O)c2nc(N(C)C)cnc2n1CC(=O)Nc1ccc(C(F)(F)F)cc1Cl [I-243, 2-{7-[(4aS,7aS)-4-(4-hydroxy-2-methoxy-5-methylpyridine-3-carbonyl)-octahydro-1H-cyclopenta[b]pyrazin-1-yl]-2-(dimethylamino)-6-ethyl-8-oxo-5H,8H-pyrido[2,3-b]pyrazin-5-yl}-N-[2-chloro-4-(trifluoromethyl)phenyl]acetamide]"
< 500,5 to 50,,"CCc1c(N2CCN(C(=O)c3ncnc(C)c3O)[C@H]3CC[C@@H]32)c(=O)c2nc(N3CC(F)(F)C3)cnc2n1CC(=O)Nc1ccc(C(F)(F)F)cc1Cl [I-245, N-[2-chloro-4-(trifluoromethyl)phenyl]-2-[2-(3,3-difluoroazetidin-1-yl)-6-ethyl-7-[(1S,6S)-5-(5-hydroxy-6-methylpyrimidine-4-carbonyl)-2,5-diazabicyclo[4.2.0]octan-2-yl]-8-oxo-5H,8H-pyrido[2,3-b]pyrazin-5-yl]acetamide]"
< 500,5 to 50,,"CCc1c(N2CCN(C(=O)c3ncnc(C)c3O)CC2(C)C)c(=O)c2nc(N(C)C)cnc2n1CC(=O)Nc1ccc(C(F)(F)F)cc1Cl [I-249, N-[2-chloro-4-(trifluoromethyl)phenyl]-2-[2-(dimethylamino)-6-ethyl-7-[4-(5-hydroxy-6-methylpyrimidine-4-carbonyl)-2,2-dimethylpiperazin-1-yl]-8-oxo-5H,8H-pyrido[2,3-b]pyrazin-5-yl]acetamide]"
< 500,5 to 50,,"CCc1c(N2CCN(C(=O)c3ncnc(C)c3O)[C@H]3CC[C@@H]32)c(=O)c2nc(N3CCOCC3)cnc2n1CC(=O)Nc1ccc(C(F)(F)F)cc1Cl [I-250, N-[2-chloro-4-(trifluoromethyl)phenyl]-2-{6-ethyl-7-[(1S,6S)-5-(5-hydroxy-6-methylpyrimidine-4-carbonyl)-2,5-diazabicyclo[4.2.0]octan-2-yl]-2-(morpholin-4-yl)-8-oxo-5H,8H-pyrido[2,3-b]pyrazin-5-yl}acetamide]"
< 500,5 to 50,,"CCc1c(N2CCN(C(=O)c3ncnc(C)c3O)[C@H]3CC[C@@H]32)c(=O)c2nc(N(C)CCOC)cnc2n1CC(=O)Nc1ccc(C(F)(F)F)cc1Cl [I-255, N-[2-chloro-4-(trifluoromethyl)phenyl]-2-{6-ethyl-7-[(1S,6S)-5-(5-hydroxy-6-methylpyrimidine-4-carbonyl)-2,5-diazabicyclo[4.2.0]octan-2-yl]-2-[(2-methoxyethyl)(methyl)amino]-8-oxo-5H,8H-pyrido[2,3-b]pyrazin-5-yl}acetamide]"
